Experimental data taken from article PMC2362153 (British Journal of Cancer, 1999).
Where two headings read alike, the source gives them in different places.

Columns and labels:
[1] = cited from earlier work
mdr1a transfected cells = tested on: mdr1a transfected cells; parameters: method as in Tang-Wai et al, 1995; conditions: ref Tang-Wai et al, 1995; cited from earlier work
[2] = over 48 h, ref Van Asperen et al, 1996, cited from earlier work
[3] = mouse, in vivo
Description: (§1) Blank human plasma was obtained from healthy donors. […] All biological specimens were stored at -20C until analysis. […] However, […]

[4] = Plasma pharmacokinetics of doxorubicin and metabolites after i.v. bolus in wild-type and mdr1a(-/-) mice (HPLC); conditions: for half-life / concentration at 1 h / concentration at 4 h / concentration at 24 h / AUC(0-t) / clearance / Vd: female, FVB, mouse, iv; for half-life: in vivo, t1/2(), elimination half-life; for half-life / AUC(0-t) / clearance / Vd: 5 mg/kg; for concentration at 1 h / concentration at 4 h / concentration at 24 h / AUC(0-t) / clearance / Vd: plasma; for concentration at 1 h / concentration at 4 h / concentration at 24 h: 5 mg kg-1, Plasma level; for concentration at 1 h: 1 h after i.v. 5 mg kg-1 doxorubicin; for concentration at 4 h: 4 h after i.v. 5 mg kg-1 doxorubicin; for concentration at 24 h: 24 h after i.v. 5 mg kg-1 doxorubicin; for AUC(0-t): AUC(0-64), area under the plasma concentration-time curve up to 64 h; for clearance: Cl; for Vd: volume of distribution
Description: as §1

[5] = Urinary and faecal excretion of doxorubicin and metabolites within 96 h (metabolic cages); conditions: for Excretion in faeces / Excretion in urine: within 96 h after i.v. 5 mg kg-1 doxorubicin
Description: Drug and metabolite concentrations were determined in plasma, tissues, urine and faeces by high-performance liquid chromatography. […] The animals were housed and handled according to institutional guidelines. Food (Hope Farms, Woerden, The Netherlands) and acidified water were given ad libitum. […] Bovine serum albumin (BSA) was obtained from Organon Teknika (Boxtel, The Netherlands). All other reagents were of analytical or Lichrosolv gradient grade and were purchased from E Merck (Darmstadt, Germany). Water was purified by the Milli-Q Plus system (Millipore, Milford, USA). Blank human plasma was obtained from healthy donors. […] The excretion study was performed with two groups of six animals, whereas in the other pharmacokinetic experiments three or four animals were used per time point. Tissue and blood samples were taken at 1, 4 and 24 h after drug adminis- tration. Blood was obtained by orbital bleeding under diethyl ether anaesthesia and collected in heparinized tubes. The animals were sacrificed by cervical dislocation to collect the following tissues: brain, skeletal muscle, colon, caecum, small gut, stomach, liver (without gall bladder), kidney, lung, spleen, heart, ovary, uterus and breast. The tissues were homogenized with a Polytron tissue homogenizer (Kinematica, Littau, Switzerland) in 4% (w/v) BSA in water, resulting in final concentrations of approximately 0.05-0.2 g tissue ml-1. Additional blood samples were obtained at 5, 15, 30 and 45 min and at 2, 8, 16, 30, 40, 56 and 64 h after drug administration. Blood samples were centrifuged (10 min, 2000 g, 4C) to separate the plasma fraction, which was stored for analysis. Urine and faeces from mice kept in Ruco Type M/1 stain- less-steel metabolic cages (Valkenswaard, The Netherlands) were collected during time intervals of 0-8, 8-24, 24-48, 48-72 and 72-96 h after drug administration. Homogenization of faeces in 4% (w/v) BSA in water (0.03-0.1 g faeces ml-1) was according to the procedure described above for tissue specimens. All biological specimens were stored at -20C until analysis. […] In brief, dilutions of faeces homogenate (20-fold) and urine (100-fold) were prepared in blank human plasma, all other specimens were used without further dilution.

[6] = Tissue distribution of doxorubicin and metabolites in wild-type and mdr1a(-/-) mice (HPLC); conditions: 24 h after drug administration
Description: as §1

[7] = mdr1a(-/-) mice, i.v. bolus 5 mg kg-1
[8] = wild-type mice, i.v. bolus 5 mg kg-1

For cyclosporin A, the “mortality on co-administration with doxorubicin” value ([1]; non-tumour-bearing mice, ref Colombo et al, 1994, Bellamy et al, 1995, Gonzalez et al) is given as “high mortality”.

In the case of `CC[C@]1(O)C[C@@H]2CN(CCc3c([nH]c4ccccc34)[C@@](C(=O)OC)(c3cc4c(cc3OC)N(C)[C@H]3[C@@](O)(C(=O)OC)[C@H](OC(C)=O)[C@]5(CC)C=CCN6CC[C@]43[C@@H]65)C2)C1` [vinblastine], the “resistance of mdr1a transfected cells in comparison with non-P-glycoprotein-expressing parental cells” value (mdr1a transfected cells) is listed as 53 fold, the “i.v. administered dose excreted unchanged in the faeces” value ([2]; mdr1a(-/-) mice) is listed as 10% and the “i.v. administered dose excreted unchanged in the faeces” value ([2]; wild-type mice) is listed as 24%.

For `COc1cccc2c1C(=O)c1c(O)c3c(c(O)c1C2=O)C[C@@](O)(C(=O)CO)C[C@@H]3O[C@H]1C[C@H](N)[C@H](O)[C@H](C)O1` [doxorubicin], the “doxorubicin concentration in heart on co-administration of reversal agent” value ([1]; ref Bellamy et al, 1995) is given as “up to twofold higher”, the “tolerability of dose level” value [3] is given as “well tolerated” and the half-life [4, 7] is given as 24.8 h. For the same molecule, the half-life [4, 8] was 15.7 h, the concentration at 1 h ([4]; mdr1a(-/-) mice) was 110 nM and the concentration at 1 h ([4]; wild-type mice) was 130 nM. The concentration at 4 h ([4]; mdr1a(-/-) mice) was 66.2 nM, the concentration at 4 h ([4]; wild-type mice) was 70.9 nM and the concentration at 24 h ([4]; mdr1a(-/-) mice) was 28.2 nM. It also gave a concentration at 24 h ([4]; wild-type mice) of 16.3 nM, an AUC(0-t) [4, 7] of 2.27 µM·h and an AUC(0-t) [4, 8] of 1.82 µM·h. For the same molecule, the clearance [4, 7] was 60 mL/min/kg, the clearance [4, 8] was 75 mL/min/kg and the Vd [4, 7] was 128 L/kg. For the same molecule, the Vd [4, 8] was 101 L/kg, the “AUC, mdr1a(-/-) in comparison with wild-type mice” value ([4]; i.v. bolus 5 mg kg-1) was 1.2 fold and the “Vd, mdr1a(-/-) in comparison with wild-type mice” value ([4]; i.v. bolus 5 mg kg-1) was 1.3 fold. The “terminal half-life, mdr1a(-/-) in comparison with wild-type mice” value ([4]; i.v. bolus 5 mg kg-1) was 1.6 fold, the “resistance of mdr1a transfected cells in comparison with non-P-glycoprotein-expressing parental cells” value (mdr1a transfected cells) was 35 fold and the “dose excreted unchanged in faeces” value ([5]; within 96 h after administration, wild-type mice) was 5%. For the same molecule, the Excretion in faeces ([5]; mdr1a(-/-) mice) was 4.1 percentage of the administered dose, the Excretion in urine ([5]; mdr1a(-/-) mice) was 15.4 percentage of the administered dose and the Excretion in faeces ([5]; wild-type mice) was 5.2 percentage of the administered dose. For the same molecule, the Excretion in urine ([5]; wild-type mice) was 10.9 percentage of the administered dose and the “absolute concentration in hearts of mdr1a(-/-) mice compared with wild-type” value [6] was “more than twofold higher”.
